Six compounds from patent US8536180B2, “Pyrimidine inhibitors of kinase activity” (AbbVie Inc., priority 2009, dated 2013) can be followed below.

As a reminder, the pIC50 is the IC50 on a negative log10 scale, so that one unit is a factor of ten.

The assay concerns the target T1, C-terminal GST-tagged, recombinant, human IGF-1R, amino acids 954-1367 (Homo sapiens, UniProt P08069).
T1 construct: human IGF-1R, amino acids 954-1367 expressed by baculovirus in Sf21 cells; GST (C); purchased Cell Signaling Technology; host or cells: baculovirus in Sf21 cells
Nature of the assay: IGF-1R homogenous time-resolved fluorescence (HTRF) in vitro kinase assay. The assay is classed as biochemical. Conditions: IGF-1R kinase, ATP 50 μM final, biotinylated peptide substrate 0.5 μM, 60 minutes at room temperature.

SMILES strings stand for the structures. pIC50: −log10 of the molar value.

T1 sequence (P08069 954-1367): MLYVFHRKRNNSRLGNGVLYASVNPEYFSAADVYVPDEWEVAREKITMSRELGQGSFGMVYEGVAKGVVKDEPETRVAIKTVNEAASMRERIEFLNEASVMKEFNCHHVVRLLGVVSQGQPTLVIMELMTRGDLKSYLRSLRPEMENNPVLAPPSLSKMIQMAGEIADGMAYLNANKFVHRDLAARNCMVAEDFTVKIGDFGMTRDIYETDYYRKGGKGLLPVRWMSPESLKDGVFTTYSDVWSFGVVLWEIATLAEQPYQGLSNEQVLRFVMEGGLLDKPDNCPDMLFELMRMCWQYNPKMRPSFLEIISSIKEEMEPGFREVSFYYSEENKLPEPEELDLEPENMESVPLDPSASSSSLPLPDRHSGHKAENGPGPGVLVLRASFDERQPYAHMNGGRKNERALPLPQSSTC

On to `CCn1cc(-c2ccnc(Nc3ccccc3OC)n2)c(-c2ccc3[nH]c(Cc4ccccc4)nc3c2)n1` [Example 64, 4-[3-(2-benzyl-1H-benzimidazol-5-yl)-1-ethyl-1H-pyrazol-4-yl]-N-(2-methoxyphenyl)pyrimidin-2-amine], for which the pIC50 was 6.30 to 7.00.

On to `CCn1cc(-c2ccnc(Nc3ccccc3OC)n2)c(-c2ccc3[nH]c(Cc4ccccc4OC)nc3c2)n1` [Example 65, 4-{1-ethyl-3-[2-(2-methoxybenzyl)-1H-benzimidazol-5-yl]-1H-pyrazol-4-yl}-N-(2-methoxyphenyl)pyrimidin-2-amine], for which the pIC50 is 6.30 to 7.00.

With `CCn1cc(-c2ccnc(Nc3ccc(N4CCC(N(C)C)CC4)cc3OC)n2)c(-c2ccc3[nH]c(Cc4ccccc4)nc3c2)n1` [Example 66, 4-[3-(2-benzyl-1H-benzimidazol-5-yl)-1-ethyl-1H-pyrazol-4-yl]-N-{-4-[4-(dimethylamino)piperidin-1-yl]-2-methoxyphenyl}pyrimidin-2-amine], the pIC50 is 7.30 to 8.00.

As to `CCn1cc(-c2ccnc(Nc3ccc(N4CCC(N(C)C)CC4)cc3OC)n2)c(-c2ccc3[nH]c(Cc4ccccc4Cl)nc3c2)n1` [Example 67, 4-{3-[2-(2-chlorobenzyl)-1H-benzimidazol-5-yl]-1-ethyl-1H-pyrazol-4-yl}-N-{4-[4-(dimethylamino)piperidin-1-yl]-2-methoxyphenyl}pyrimidin-2-amine], the pIC50 is 7.00 to 7.29.

For the compound `CCn1cc(-c2ccnc(Nc3ccc(N4CCC(N(C)C)CC4)cc3OC)n2)c(-c2ccc3[nH]c(Cc4ccccc4OC)nc3c2)n1` [Example 68, N-{4-[4-(dimethylamino)piperidin-1-yl]-2-methoxyphenyl}-4-{1-ethyl-3-[2-(2-methoxybenzyl)-1H-benzimidazol-5-yl]-1H-pyrazol-4-yl}pyrimidin-2-amine], the pIC50 is 7.00 to 7.29.

Consider `CCn1cc(-c2ccnc(Nc3ccc(N4CCC(N(C)C)CC4)cc3OC)n2)c(-c2ccc3[nH]c(-c4ccccc4)nc3c2)n1` [Example 69, N-{4-[4-(dimethylamino)piperidin-1-yl]-2-methoxyphenyl}-4-[1-ethyl-3-(2-phenyl-1H-benzimidazol-5-yl)-1H-pyrazol-4-yl]pyrimidin-2-amine], for which the pIC50 is 6.30 to 7.00.
